Here are results for 1 molecule from patent US8577617B2, “Metabolic phenotyping” (priority 2002, dated 2013).

Each structure is given as a SMILES string.

The data set relates to male Sprague-Dawley rats. It is filed as in vivo. To be noted: 200 mg/kg i.p., individual animals 101-110. The method, then: Dosing was on the day designated as ‘day 1’ when the growing rats were each approximately 250 g in mass. Isoniazid (from Sigma, France) was dissolved in physiological saline and dosed by intraperitoneal injection at either 200 mg/kg or at 400 mg/kg; ten animals (nos. 101-110) received the low dose and ten animals (nos. 201-210) received the high dose. Ten control animals (nos. 1-10) received an intraperitoneal injection of saline.
It was intended that post-dose blood samples would be taken immediately before euthanasia with euthanasia being immediately followed by sampling for histopathology. As in Example 1, the intention was that five of each group of ten rats would be euthanased by means of CO2 at one day after dosing thereby providing early blood and histopathology samples; the remainder were to be euthanased by the same technique at seven days after dosing thereby providing late blood and histopathology samples. It was planned that the early-euthanased rats would be numbers 6-10, 106-110 and 206-210 whilst the late-euthanased rats would be numbers 1-5, 101-105 and 201-205. […] The urine samples were deep-frozen pending NMR analysis. […]

`NNC(=O)c1ccncc1` [isoniazid]: the “Premature Death?” value is reported as “No”.
